Measured values reported in patent publication US20240376086A1, “SOLID FORM OF RHO-ASSOCIATED PROTEIN KINASE INHIBITOR OR SOLVATE THEREOF, PREPARATION METHOD AND USE THEREOF” (BEIJING TIDE PHARMACEUTICAL CO., LTD., priority 2021, published 2024).

What was measured:
Assay type in all cases: physicochemical
[1] = Solid heat stability test (heating in DSC, then XRPD)
Description: Experimental Example 2: Solid Heat Stability Test
In a differential scanning calorimeter, samples of Crystalline Form I of Compound A monohydrate were heated at a rate of 10° C./min to 150° C. and 210° C., respectively, and then analyzed by X-ray powder diffraction.

[2] = Solid hygroscopicity test; details: 25° C.±1° C., 80%±2% relative humidity, 24 hours
Description: Experimental Example 3: Solid Hygroscopicity Test
100 mg of Crystalline Form II of Compound A anhydrate and 100 mg of Crystalline Form I of Compound A monohydrate were precisely weighed. The two samples were placed at 25° C.±1° C. and 80%±2% relative humidity for 24 hours. The weight of the samples was then measured and the percentage weight increase was calculated.

[3] = Solid stability test (XRPD after storage)
Description: Experimental Example 1: Solid Stability Test
Two samples of Crystalline Form II of Compound A anhydrate were placed in environments of 40° C./75% RH and 60° C./90% RH for 7 days.

Cn1c(C(=O)C2CC(F)(F)C2)cc2ccc(-c3nccc(Nc4ccc(-c5cn[nH]c5)cc4)n3)cc21 [Crystalline Form I of Compound A monohydrate]
crystalline form by XRPD after heat treatment ([1]; heated at 10° C./min to 150° C.): remained unchanged
crystalline form by XRPD after heat treatment ([1]; heated at 10° C./min to 210° C.): converted to crystalline form II of Compound A anhydrous
weight increase percentage (hygroscopicity) [2]: 3.62%

Cn1c(C(=O)C2CC(F)(F)C2)cc2ccc(-c3nccc(Nc4ccc(-c5cn[nH]c5)cc4)n3)cc21 [Crystalline Form II of Compound A anhydrate]
change in the crystalline form by XRPD analysis ([3]; 40° C./75% RH for 7 days): no change in the crystalline form
change in the crystalline form by XRPD analysis ([3]; 60° C./90% RH for 7 days): no change in the crystalline form
weight increase percentage (hygroscopicity) [2]: 0.69%
